Test results as given in US9271960B2, “Tetrahydrocarbazoles as active agents for inhibiting VEGF production by translational control” (PTC Therapeutics, Inc., priority 2004, dated 2016).

What follows are compounds tested on VEGF (assay: Hypoxia-inducible endogenous VEGF expression ELISA in HeLa cells). Details: Homo sapiens, HeLa, compounds 1-155, hypoxic conditions (1% O2), VEGF protein by ELISA, read-out: ELISA Activity.
Assay type: cell-based
Experimental: The ability of compounds of the invention to modulate hypoxia-inducible endogenous VEGF expression is analyzed as follows. VEGF protein levels are monitored by an ELISA assay (R&D Systems). Briefly, HeLa cells are cultured for 24-48 hours under hypoxic conditions (1% O2, 5% CO2, balanced with nitrogen) in the presence or absence of a compound of the invention. The conditioned media is then assayed by ELISA, and the concentration of VEGF is calculated from the standard ELISA curve of each assay.
A dose-response analysis is performed using the ELISA assay and conditions described above. A series of different concentrations (e.g., seven) are analyzed. In parallel, a dose-response cytotoxicity assay is performed using Cell Titer Glo (Promega) under the same conditions as the ELISA to ensure that the inhibition of VEGF expression is not due to cytotoxicity. Dose-response curves are plotted using percentage inhibition versus concentration of the compound, and EC50 and CC50 values are generated for each compound with the maximal inhibition set as 100% and the minimal inhibition as 0%.
Compounds 156-188 in Table 1 are commercially available. In Table 1, each of the represented compounds is followed by one to five stars.

Compound	EC50 [nM]
COc1ccc2[nH]c3c(c2c1)CCC/C3=N\O [Compound 84, 6-Methoxy-2,3,4,9-tetrahydro-carbazol-1 one oxime]	> 1000
COc1cccc(C(=O)NC2CCCc3c2[nH]c2ccc(Br)cc32)c1OC (stereo not shown) [Compound 39, N-(6-Bromo-2,3,4,9-tetrahydro-1H-carbazol-1-yl)-2,3-dimethoxy-benzamide]	40 to 200
O=C(NC1CCCc2c1[nH]c1ccc(Br)cc21)c1ccc(Cl)nc1 (stereo not shown) [Compound 52, N-(6-Bromo-2,3,4,9-tetrahydro-1H-carbazol-1-yl)-6-chloro-nicotinamide]	40 to 200
O=C(O)C1CCCc2c1[nH]c1ccc(Br)cc21 (stereo not shown) [Compound 85, 6-Bromo-2,3,4,9-tetrahydro-1H-carbazole-1-carboxylic acid]	> 1000
O=C(NC1CCCc2c1[nH]c1ccc(Br)cc21)c1ccc(C(F)(F)F)cc1 (stereo not shown) [Compound 131, N-(6-Bromo-2,3,4,9-tetrahydro-1H-carbazol-1-yl)-4-trifluoromethyl-benzamide]	10 to 40
COc1ccc(NC2CCCc3c2[nH]c2ccc(Cl)cc32)cc1 (stereo not shown) [Compound 136, (6-Chloro-2,3,4,9-tetrahydro-1H-carbazol-1-yl)-(4-methoxy-phenyl)-amine]	< 10
COc1ccc(NC2CCCc3c2[nH]c2ccc(Br)cc32)cc1 (stereo not shown) [Compound 4, (6-Bromo-2,3,4,9-tetrahydro-1H-carbazol-1-yl)-(4-methoxy-phenyl)-amine]	< 10
Fc1ccc(OC2CCCc3c2[nH]c2ccc(Br)cc32)cc1 (stereo not shown) [Compound 54, 6-Bromo-1-(4-fluoro-phenoxy)-2,3,4,9-tetrahydro-1H-carbazole]	40 to 200
COc1ccc(C(=O)NC2CCCc3c2[nH]c2ccc(Br)cc32)cc1 (stereo not shown) [Compound 130, N-(6-Bromo-2,3,4,9-tetrahydro-1H-carbazol-1-yl)-4-methoxy-benzamide]	10 to 40
Brc1ccc2[nH]c3c(c2c1)CCCC3NCC1CCCO1 (stereo not shown) [Compound 77, (6-Bromo-2,3,4,9-tetrahydro-1H-carbazol-1-yl)-(tetrahydro-furan-2-ylmethyl)-amine]	> 1000
Brc1ccc2[nH]c3c(c2c1)CCCC3Nc1ccc(Oc2ccccc2)cc1 (stereo not shown) [Compound 9, (6-Bromo-2,3,4,9-tetrahydro-1H-carbazol-1-yl)-(4-phenoxy-phenyl)-amine]	< 10
Brc1ccc2[nH]c3c(c2c1)CCc1cnn(-c2ccccc2)c1-3 [Compound 109, 7-Bromo-1-phenyl-1,4,5,10-tetrahydro-1,2,10-triaza-cyclopenta[a]fluorine]	> 1000
Brc1ccc2c3c([nH]c2c1)C(n1cccc1)CCC3 (stereo not shown) [Compound 121, 7-Bromo-1-pyrrol-1-yl-2,3,4,9-tetrahydro-1H-carbazole]	> 1000
c1ccn(C2CCCc3c2[nH]c2ccc(N4CCOCC4)cc32)c1 (stereo not shown) [Compound 104, 6-Morpholin-4-yl-1-pyrrol-1-yl-2,3,4,9-tetrahydro-1H-carbazole]	> 1000
O=C(NC1CCCc2c1[nH]c1ccc(Br)cc21)c1ccccc1 (stereo not shown) [Compound 21, N-(6-Bromo-2,3,4,9-tetrahydro-1H-carbazol-1-yl)-benzamide]	< 10
Brc1cccc2[nH]c3c(c12)CCCC3Nc1ccccc1 (stereo not shown) [Compound 43, (5-Bromo-2,3,4,9-tetrahydro-1H-carbazol-1-yl)-phenyl-amine]	40 to 200
Brc1ccc2[nH]c3c(c2c1)CCCC3Nc1ccon1 (stereo not shown) [Compound 51, (6-Bromo-2,3,4,9-tetrahydro-1H-carbazol-1-yl)-isoxazol-3-yl-amine]	40 to 200
O=C(Nc1ccccc1)NC1CCCc2c1[nH]c1ccc(Br)cc21 (stereo not shown) [Compound 81, 1-(6-Bromo-2,3,4,9-tetrahydro-1H-carbazol 1-yl)-3-phenyl-urea]	> 1000

Compound	EC50 [nM]
O/N=C1\CCCc2c1[nH]c1c(Br)cccc21 [Compound 98, 8-Bromo-2,3,4,9-tetrahydro-carbazol-1-one oxime]	> 1000
Brc1ccc2[nH]c3c(c2c1)CCCC3c1ccccc1 (stereo not shown) [Compound 15, 6-Bromo-1-phenyl-2,3,4,9-tetrahydro-1H-carbazole]	< 10
O=Cc1ccn(C2CCCc3c2[nH]c2ccc(Br)cc32)c1 (stereo not shown) [Compound 38, 1-(6-Bromo-2,3,4,9-tetrahydro-1H-carbazol-1-yl)-1H-pyrrole-3-carbaldehyde]	40 to 200
Brc1ccc2[nH]c3c(c2c1)CCCC3N1CCCC1 (stereo not shown) [Compound 116, 6-Bromo-1-pyrrolidin-1-yl-2,3,4,9-tetrahydro-1H-carbazole]	> 1000
O=C(NC1CCCc2c1[nH]c1ccc(Br)cc21)c1cccnc1 (stereo not shown) [Compound 58, N-(6-Bromo-2,3,4,9-tetrahydro-1H-carbazol-1-yl)-nicotinamide]	40 to 200
Brc1ccc2[nH]c3c(c2c1)CCCC3c1nc2ccccc2[nH]1 (stereo not shown) [Compound 142, 1-(1H-Benzoimidazol-2-yl)-6-bromo-2,3,4,9-tetrahydro-1H-carbazole]	10 to 40
O=C(NC1CCCc2c1[nH]c1ccc(Cl)cc21)c1cccs1 (stereo not shown) [Compound 143, Thiophene-2-carboxylic acid (6-chloro-2,3,4,9-tetrahydro-1H-carbazol-1-yl)-amide]	40 to 200
O=C(NC1CCCc2c1[nH]c1ccc(Br)cc21)c1ccc(F)cc1F (stereo not shown) [Compound 133, N-(6-Bromo-2,3,4,9-tetrahydro-1H-carbazol-1-yl)-2,4-difluoro-benzamide]	< 10
O=C1CCCc2c1oc1ccc(Br)cc21 [Compound 105, 8-Bromo-2,3-dihydro-1H-dibenzofuran-4-one]	> 1000
Brc1ccc2[nH]c3c(c2c1)CCCC3Nc1ccc(-c2ccccc2)cc1 (stereo not shown) [Compound 28, Biphenyl-4-yl-(6-bromo-2,3,4,9-tetrahydro-1H-carbazol-1-yl)-amine]	10 to 40
COc1cccc(CNC2CCCc3c2[nH]c2ccc(Br)cc32)c1OC (stereo not shown) [Compound 55, (6-Bromo-2,3,4,9-tetrahydro-1H-carbazol-1-yl)-(2,3-dimethoxy-benzyl)-amine]	40 to 200
O=C(NC1CCCc2c1[nH]c1ccc(Br)cc21)c1ccco1 (stereo not shown) [Compound 123, Furan-2-carboxylic acid (6-bromo-2,3,4,9-tetrahydro-1H-carbazol-1-yl)-amide]	10 to 40
Clc1cccc(NC2CCCc3c2[nH]c2ccc(Br)cc32)c1 (stereo not shown) [Compound 20, (6-Bromo-2,3,4,9-tetrahydro-1H-carbol-1-yl)-(3-chloro-phenyl)-amine]	< 10
CC(=O)n1c2c(c3cc(Br)ccc31)CCCC2 [Compound 86, 1-(6-Bromo-1,2,3,4-tetrahydro-carbazol-9-yl)-ethanone]	> 1000
Clc1ccc2[nH]c3c(c2c1Cl)CCCC3n1cccc1 (stereo not shown) [Compound 48, 5,6-Dichloro-1-pyrrol-1-yl-2,3,4,9-tetrahydro-1H-carbazole]	40 to 200
O=C(NC1CCCc2c1[nH]c1ccc(Br)cc21)c1ccc([N+](=O)[O-])o1 (stereo not shown) [Compound 146, 5-Nitro-furan-2-carboxylic acid (6-bromo-2,3,4,9-tetrahydro-1H-carbazol-1-yl)-amide]	40 to 200
O/N=C1\CCCc2c1[nH]c1ccc(Cl)cc21 [Compound 93]	> 1000

Same assay, conditions: Homo sapiens, HeLa, compounds 191-239, hypoxic conditions, VEGF protein by ELISA, read-out: ELISA Activity EC50

Compound	EC50 [nM]
COCCN(CCOC)CC(O)COc1ccc(C2CCCCc3c2[nH]c2ccc(Cl)cc32)cc1 (stereo not shown) [Compound 234]	< 10
Brc1ccc2[nH]c3c(c2c1)CCCC3c1ccc(OCC2CO2)cc1 (stereo not shown) [Compound 194]	< 10
COc1ccc(C2CCCCc3c2[nH]c2ccc(Cl)cc32)cc1 (stereo not shown) [Compound 229]	10 to 40
OC(COc1ccc(C2CCCc3c2[nH]c2ccc(Cl)cc32)cc1)Cn1cncn1 (stereo not shown) [Compound 222]	40 to 200
OC(COc1ccc(C2CCCc3c2[nH]c2ccc(Cl)cc32)cc1)Cn1ccnn1 (stereo not shown) [Compound 221]	10 to 40

Same assay, conditions: Homo sapiens, HeLa, purchased compounds 156-188, hypoxic conditions, VEGF protein by ELISA, read-out: ELISA Activity

Compound	EC50 [nM]
Cc1ccc2[nH]c3c(c2c1)CCCC3NCCCO (stereo not shown) [Compound 177, 3-(6-Methyl-2,3,4,9-tetrahydro-1H-carbazol-1-ylamino)-propan-1-ol]	> 1000
CC(=O)Nc1ccc(CN2CCCn3c4c(c5cc(C)ccc53)CCCC42)cc1 (stereo not shown) [Compound 181, N-[4-(11-Methyl-1,2,3,3a,6,7-hexahydro-5H-[1,4]diazepino[3,2,1-jk]carbazol-4-ylmethyl)-phenyl]-acetamide]	> 1000
Cc1ccc2[nH]c3c(c2c1)CCCC3NCC12CC3CC(CC(C3)C1)C2 (stereo not shown) [Compound 159, Adamantan-1-ylmethyl-(6-methyl-2,3,4,9-tetrahydro-1H-carbazol-1-yl)-amine]	200 to 1000
Cc1ccc2[nH]c3c(c2c1)CCCC3NCc1ccc(Cl)cc1 (stereo not shown) [Compound 160, (4-Chloro-benzyl)-(6-methyl-2,3,4,9-tetrahydro-1H-carbazol-1-yl)-amine]	200 to 1000
O=[N+]([O-])c1ccc2[nH]c3c(c2c1)CCCC3NC1CCC(c2ccccc2)CC1 (stereo not shown) [Compound 157]	10 to 40

Same assay, conditions: Homo sapiens, HeLa, purchased compounds 156-188, hypoxic conditions, VEGF protein by ELISA, read-out: ELISA EC50

Compound	EC50 [nM]
Cc1ccc2[nH]c3c(c2c1)CCCC3NCCCO (stereo not shown) [Compound 177, 3-(6-Methyl-2,3,4,9-tetrahydro-1H-carbazol-1-ylamino)-propan-1-ol]	> 10000
CC(=O)Nc1ccc(CN2CCCn3c4c(c5cc(C)ccc53)CCCC42)cc1 (stereo not shown) [Compound 181, N-[4-(11-Methyl-1,2,3,3a,6,7-hexahydro-5H-[1,4]diazepino[3,2,1-jk]carbazol-4-ylmethyl)-phenyl]-acetamide]	> 10000
Cc1ccc2[nH]c3c(c2c1)CCCC3NCC12CC3CC(CC(C3)C1)C2 (stereo not shown) [Compound 159, Adamantan-1-ylmethyl-(6-methyl-2,3,4,9-tetrahydro-1H-carbazol-1-yl)-amine]	360
Cc1ccc2[nH]c3c(c2c1)CCCC3NCc1ccc(Cl)cc1 (stereo not shown) [Compound 160, (4-Chloro-benzyl)-(6-methyl-2,3,4,9-tetrahydro-1H-carbazol-1-yl)-amine]	420
O=[N+]([O-])c1ccc2[nH]c3c(c2c1)CCCC3NC1CCC(c2ccccc2)CC1 (stereo not shown) [Compound 157]	14.9

Same assay, conditions: purchased compounds 156-188, hypoxic conditions, VEGF protein by ELISA, read-out: ELISA Activity

Compound	EC50 [nM]
3-(8-Cyclohexyl-1,2,3a,4,5,6- hexahydro-pyrazino[3,2,1- jk]carbazol-3-yl)-propionic acid [Compound 183]	> 1000

Same assay, conditions: purchased compounds 156-188, hypoxic conditions, VEGF protein by ELISA, read-out: ELISA EC50

Compound	EC50 [nM]
3-(8-Cyclohexyl-1,2,3a,4,5,6- hexahydro-pyrazino[3,2,1- jk]carbazol-3-yl)-propionic acid [Compound 183]	> 10000
